Measurements from ChEMBL document CHEMBL1201862, “PubChem BioAssay data set” (2004).
Where a name gives a salt, the structure may show the parent alone. Calls of active or inactive are those of the source. Cut-off read from the data, not from the text of the source, for most assays here: actives have a measured EC50 and inactives only a lower limit.

How the values were obtained:
[1] = HEp-2 cell cytotoxicity, dose response, cytotoxicity control for RSV inhibitor project, HTS (AID 2410); type: functional; settings: human respiratory syncytial virus
[2] = molecular target: T1, Heat shock factor protein 1 (Mus musculus, UniProt P38532); test: inhibition of MG132-induced HSE-luciferase signal, confirmation, cell-based, NIH3T3, luminescence, dose retest (AID 2382); type: functional;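 note: NIH3T3 fibroblasts with HSF1-driven luciferase reporter stressed by proteasome inhibitor MG132; luminescence from HSF1-driven luciferase expression after 8 hours of MG132 stress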
T1 sequence (P38532 whole entry): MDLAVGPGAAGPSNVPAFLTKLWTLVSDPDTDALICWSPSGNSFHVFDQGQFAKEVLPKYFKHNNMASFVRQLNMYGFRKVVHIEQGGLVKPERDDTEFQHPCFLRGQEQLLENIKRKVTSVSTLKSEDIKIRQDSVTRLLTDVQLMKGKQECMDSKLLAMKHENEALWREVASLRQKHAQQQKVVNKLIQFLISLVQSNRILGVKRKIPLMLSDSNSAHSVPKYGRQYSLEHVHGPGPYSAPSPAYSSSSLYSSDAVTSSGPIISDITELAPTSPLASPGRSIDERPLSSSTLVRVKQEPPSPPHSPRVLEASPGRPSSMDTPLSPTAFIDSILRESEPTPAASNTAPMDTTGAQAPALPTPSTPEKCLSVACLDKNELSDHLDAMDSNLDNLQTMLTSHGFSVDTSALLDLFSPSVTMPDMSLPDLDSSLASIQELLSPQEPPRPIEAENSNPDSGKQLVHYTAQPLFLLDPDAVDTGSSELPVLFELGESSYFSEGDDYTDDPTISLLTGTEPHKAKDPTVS

[3] = Luminescence Cell-Based Dose Retest to Confirm Inhibitors of Cancer Stem Cells. [Related pubchem assays (depositor defined):AID2717, AID2721]; type: functional; settings: Homo sapiens
[4] = NIH-3T3 fibroblast cytotoxicity, dose response, cytotoxicity control, cell-based, fluorescence, Alamar Blue, secondary assay (AID 2327); type: functional;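 note: NIH-3T3 mouse fibroblasts cultured with fluconazole at 8 µg/mL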
[5] = C. albicans growth with fluconazole, confirmation, fluorescence, retest (AID 2467); type: functional, cell-based
[6] = cytotoxicity toward NIH3T3 fibroblasts, dose response, counter-screen, cell-based, ATP luminescence, mouse fibroblasts (AID 2010); type: functional;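 note: cells exposed to compound for about 90 hours before reading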
[7] = inhibitors of intracellular T. cruzi replication, confirmation, NIH3T3 host cells, beta-gal luminescence (AID 2044); type: functional, cell-based;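 note: intracellular parasites grown in NIH/3T3 mouse fibroblasts as host cells; luminescent beta-galactosidase reporter signal from transgenic T. cruzi replicating inside host cells; inhibitors lower the luminescence signal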
[8] = system: Streptococcus sp. 'group A'; test: growth inhibition of control SK(-) GAS strain, dose response, counter-screen for streptokinase expression inhibitor project, luminescence, kanamycin, BacTiterGlo, confirmation (AID 1900); type: functional, organism-based
[9] = system: Streptococcus; test: Group A Streptococcus viability loss, dose response, counter-screen for streptokinase expression inhibitor project, luminescence, BacTiterGlo (AID 1915); type: functional, organism-based;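 note: potency for reduction of bacterial viability or growth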
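Throughout, for AC50: cells exposed to compound for roughly 70 hours or longer before luminescence read.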

COc1ccc(C2NC(S)=NC3=C2CCc2cc(OC)ccc23)cc1 (stereo not given)
CC50 [1]: 26.4 µM (active)

COc1ccc(-n2nc(C(=O)NCC(=O)NCc3ccccc3OC)c3ccccc3c2=O)c(OC)c1
EC50 [2]: > 195 µM (not active)

O=C(O)/C=C\C(=O)Nc1ccc(OCc2ccccc2)cc1
EC50 [2]: 31 µM (active)

O=C(Nc1ccc(Br)cn1)c1cccc(-c2cc3ccccc3oc2=O)c1
AC50 [3]: 8.81 µM (active)

NC(=O)c1c(NC(=O)c2ccncc2)sc2c1CCCC2
EC50 [4]: > 150 µM (inactive) | EC50 [5]: 2.12 µM (active)

Cc1ccc(/C=C/C(=O)NCCc2ccccc2)o1
AC50 [3]: > 195 µM (inactive)

O=C(NCc1ccccc1)C1CCCN(S(=O)(=O)c2cccc3nsnc23)C1 (stereo not given)
EC50 [2]: > 195 µM (not active)

COC(=O)c1c(C)nc(O)nc1SCc1cccc2ccccc12
CC50 [1]: > 50 µM (active)

CCN(CC)CCOC(=O)c1ccc(N)cc1 [PROCAINE HYDROCHLORIDE]
EC50 [2]: > 195 µM (not active)

c1ccc2c(c1)OCC(c1csc3ncnc(N4CCCCC4)c13)O2 (stereo not given)
CC50 [1]: 16.8 µM (active)

Cc1sc2ncnc(N3CCC(C(=O)Nc4nc(-c5cccs5)cs4)CC3)c2c1C
EC50 [6]: > 60 µM (not active) | EC50 [7]: 1.6 µM (active) | EC50 [2]: 1.07 µM (active)

CCOC(=O)c1cnc(SC)nc1Oc1cccc(NS(=O)(=O)c2ccccc2)c1
EC50 [6]: > 60 µM (not active) | EC50 [7]: 1.64 µM (active)

Cc1cc(NC(=O)CSc2nnc(C)n2C)no1
EC50 [2]: > 195 µM (not active)

CCOc1ccccc1CN1CCN(CC2=Cc3cc(OC)ccc3OC2)CC1CCO (stereo not given)
EC50 [6]: > 60 µM (not active) | EC50 [7]: 1.29 µM (active)

CC(=O)Oc1c(Cl)cc(Cl)cc1/C=C/c1ccc2ccccc2n1
AC50 [3]: 1.81 µM (active)

O=C(NCc1ccccc1)N1CCC(CO)(Cc2cccc(F)c2)CC1
EC50 [2]: > 195 µM (not active)

COc1ccc(Br)c2oc(SC)cc(=O)c12
CC50 [1]: > 50 µM (active)

Cc1nnc(-c2cnn(-c3ccccc3)c2N)n1Cc1cccc(C(F)(F)F)c1
EC50 [2]: > 195 µM (not active)

C=CCOc1c(Cl)cc(CNc2ccc(C)c(Cl)c2)cc1OC
EC50 [6]: 0.491 µM (active) | EC50 [7]: 2.75 µM (active)

Cc1cc(C)nc(N=C(NCc2ccc3c(c2)OCO3)NC(=O)Nc2ccccc2)n1
EC50 [4]: > 150 µM (inactive) | EC50 [5]: > 38 µM (not active)

O=C(c1ccc(C(=O)N2CCN(c3ccccc3F)CC2)nc1)N1CCN(c2ccccc2F)CC1
EC50 [4]: > 160 µM (inactive) | EC50 [5]: > 38 µM (not active)

CCC(=O)N1CCN(c2cc(N3CCN(C)CC3)c(F)cc2[N+](=O)[O-])CC1
EC50 [6]: > 60 µM (not active) | EC50 [7]: 0.765 µM (active)

COc1ccc(S(=O)(=O)NCC(c2cccnc2)N2CCN(Cc3ccccc3)CC2)cc1 (stereo not given)
EC50 [6]: > 60 µM (not active) | EC50 [7]: 1.58 µM (active)

C[C@@H](O)[C@H]1C(=O)N2C(C(=O)O)=C(S[C@@H]3CN[C@H](C(=O)N(C)C)C3)[C@H](C)[C@H]12 [MEROPENEM]
EC50 [8]: 0.153 µM (active) | EC50 [9]: 1.15 µM (active)

CCCCC1SC(N/N=C/c2ccco2)=NC1=O (stereo not given)
EC50 [4]: > 150 µM (inactive) | EC50 [5]: 5.08 µM (active)

COC(=O)c1cc(=O)n(Cc2cccs2)/c(=N/c2ccc(F)cc2)s1
AC50 [3]: 3.81 µM (active)

COc1ccccc1-n1c(O)cc(=O)nc1SCC(=O)Nc1ccc(Br)cc1
EC50 [8]: 6.68 µM (active) | EC50 [9]: 22.6 µM (active)

CO/N=C/c1ccc(N2CCN(C(=O)c3ccc(C)cc3)CC2)c([N+](=O)[O-])c1
EC50 [4]: > 160 µM (inactive) | EC50 [5]: > 38 µM (not active)

COc1cccc(CN(C(=O)Cc2c[nH]c3ccccc23)C(C(=O)NC2CCCCC2)c2cccs2)c1 (stereo not given)
EC50 [6]: > 60 µM (not active) | EC50 [7]: 1.98 µM (active)

Cc1ccsc1/C=C1\C(=O)NC(=S)N(C)C1=O
EC50 [2]: > 195 µM (not active)

NS(=O)(=O)c1ccc(CCNCC#Cc2ccccc2)cc1
EC50 [2]: > 195 µM (not active)

CCN(c1ccccc1)S(=O)(=O)c1cccc(C(=O)NCC(c2cccs2)N2CCOCC2)c1 (stereo not given)
AC50 [3]: > 195 µM (inactive)

O=C(NC(=S)NCCc1ccccc1)C1CCCCC1
AC50 [3]: 10.6 µM (active)

CC(=O)Nc1ccc(S(=O)(=O)NCc2ccc(C(=O)NCc3ccc4c(c3)OCO4)cc2)cc1
EC50 [2]: > 195 µM (not active)

Cc1cccc(CN2C(=O)[C@@H]3Cc4c([nH]c5ccccc45)C(C)(C)N3C2=O)c1
AC50 [3]: 11.9 µM (active)

CCN(CC)S(=O)(=O)c1ccc(N2CCN(C)CC2)c(NC(=O)COc2ccc(F)cc2Cl)c1
EC50 [6]: > 60 µM (not active) | EC50 [7]: 0.252 µM (active)

O=C(Nc1ccc(Cl)c([N+](=O)[O-])c1)c1ccc(NCCCN2CCOCC2)c([N+](=O)[O-])c1
EC50 [6]: > 60 µM (not active) | EC50 [7]: 0.963 µM (active)

COc1ccc(NC(=O)CN2C(=O)COc3ccc(S(=O)(=O)N4CCOCC4)cc32)c(OC)c1
EC50 [2]: > 195 µM (not active)

O=C(c1ccc([N+](=O)[O-])s1)N1CCN(c2ccccc2)CC1
EC50 [6]: > 60 µM (not active) | EC50 [7]: 0.808 µM (active)

O=C(NC1CCCCC1)C1CCN(c2nccs2)CC1
EC50 [2]: > 195 µM (not active)

Cc1ccc(C)c(N2CCN(C(=O)c3cc(S(=O)(=O)N4CCCC4)cn3C)CC2)c1
EC50 [2]: > 195 µM (not active)

O=C(Nc1ccc2c(c1)OCO2)c1ccc(COc2ccc3c(c2)CCC3)o1
AC50 [3]: 3.1 µM (active)

C/C(=N\NC(=O)c1nn(C)c(C)c1Br)c1ccc(NC(=O)C2CCCC2)cc1
EC50 [4]: 34.4 µM (active) | EC50 [5]: > 38 µM (not active)

O=C(Nc1ccc(Cl)cc1)N1CCCN(c2ccc(C(F)(F)F)cc2[N+](=O)[O-])CC1
AC50 [3]: 4.79 µM (active)

CC(=S)/C=C1\Sc2ccccc2N1C
EC50 [4]: > 150 µM (inactive) | EC50 [6]: > 60 µM (not active) | EC50 [7]: 0.739 µM (active) | EC50 [5]: 1.9 µM (active)

Cc1nn(CC(=O)NCCCc2ccccc2)c(C)c1[N+](=O)[O-]
EC50 [4]: > 150 µM (inactive)

Cc1[nH]n(-c2cccc3ccccc23)c(=O)c1/C=N/NC(=O)c1cccc([N+](=O)[O-])c1
EC50 [4]: 12.1 µM (active) | EC50 [8]: 2.98 µM (active) | EC50 [9]: 7.09 µM (active) | EC50 [5]: > 38 µM (not active)

CCN=C(S)NNC(=O)c1cc(-c2cccc(C)c2)nc2ccccc12
EC50 [4]: 20.2 µM (inconclusive) | EC50 [5]: 2.5 µM (active)

CN1CCN(C(=O)CCc2ccc(S(=O)(=O)NC3CCCCC3)cc2)CC1
EC50 [6]: > 60 µM (not active) | EC50 [7]: 0.141 µM (active)

COc1cccc(-c2nc(CCl)cs2)c1
EC50 [6]: > 60 µM (not active) | EC50 [7]: 3.25 µM (active)

Cc1ccc(SCCN=C(S)Nc2ccc(C)cc2C)cc1
EC50 [6]: > 60 µM (not active) | EC50 [7]: 2.2 µM (active)

COc1cc(NS(=O)(=O)c2ccc(NC(=S)NC(=O)/C=C/c3ccc(OC)c(OC)c3)cc2)ncn1
EC50 [2]: > 195 µM (not active)

CNC(=S)N/N=C/c1ccc(-c2ccc(Cl)c([N+](=O)[O-])c2)o1
EC50 [4]: > 150 µM (inconclusive) | EC50 [5]: > 38 µM (not active)

CC(Oc1ccc(Br)cc1)C(=O)NC1CCN(Cc2ccccc2)CC1 (stereo not given)
EC50 [6]: > 60 µM (not active) | EC50 [7]: 0.579 µM (active)

Cc1ccc(NC(=O)NC2CCCCCCC2)c(C)c1
EC50 [4]: 19.6 µM (inconclusive) | EC50 [5]: > 38 µM (not active)

CNC(=O)c1ccc2c(c1)nnn2C
EC50 [4]: 58.7 µM (active) | EC50 [5]: > 38 µM (not active)

Cc1cc(C)c2nc(O)c(CN(Cc3cccs3)C(S)=NCc3ccco3)cc2c1
AC50 [3]: 61.4 µM (active)
